The text below walks through data of paper PMC11973094, “Formononetin and mizoribine inhibit Porcine Reproductive and Respiratory Syndrome Virus replication in vitro” (Frontiers in Nutrition, 2025).

SMILES strings stand for the structures.

The test system of data set [1] is PRRSV VR-2332 strain. Kind of data set: Time-of-addition assay, Marc-145 cells infected with VR-2332 (MOI = 1). The format is cell-based, Porcine Reproductive and Respiratory Syndrome Virus. The source says: The assay commenced with seeding cells into a 96-well plate, followed by their cultivation in DMEM supplemented with 8% FBS. Upon achieving a monolayer, the cells were infected with the VR-2332 strain of PRRSV at a multiplicity of infection (MOI) of 1. One hour after infection, the viral inoculum was discarded, and the cells were cleansed with ice-cold PBS. DMSO or various concentrations of FMN or MZR were then introduced to the culture at different time intervals, as depicted in Figure 1A. Thirty-six hours post-infection, the expression levels of PRRSV RNA were quantified using previously described methods.
Figure 1 Time-of-addition experiment with FMN or MZR. (A) This schematic diagram illustrates the classical experimental protocol for administering drugs at different time points. The experiment began with Marc-145 cells uniformly infected with VR-2332 (MOI = 1) at 0 h, followed by adding varying concentrations of FMN or MZR at specific times. (B,C) FMN or MZR was introduced at −4, 0, 2, 4, 8, and 16 h to examine their impact on various stages of PRRSV replication. All samples were collected for analysis 36 h post-infection. The colors of the bars in the figure correspond to the time points as detailed in (A). Each symbol represents an independent biological replicate. The p-values are indicated, with ‘ns’ denoting p > 0.1234. These values were calculated using one-way ANOVA with Dunnett’s multiple-comparison test, and a p-value less than 0.0332 was considered statistically significant.

A further data set concerns PRRSV GSWW-18 strain. The experiment in a line: Viral titer and gene expression of GSWW-18 strain in PAM cells. The format is cell-based, Porcine Reproductive and Respiratory Syndrome Virus. Conditions: 36 h. The procedure: (§1) Viral solutions were diluted in a 10-fold gradient. Aliquots of solutions containing varying concentrations of the virus (100 μL each) and DMEM with 2% FBS (100 μL) were added to each well. Add 100 μL of 2% FBS DMEM (without PRRSV) to the control wells. The plates were incubated for 4 days at 37°C in a humidified atmosphere with 5% CO2, after which the virus TCID50 values were calculated using the Reed and Muench formula. To evaluate PRRSV gene expression, we employed the relative quantitative Reverse Transcription Quantitative Polymerase Chain Reaction (qRT-PCR) technique. The resultant data were processed using Design & Analysis Software (Thermo, version 2.6.0) and normalized based on the 2^−ΔΔCt method. For the determination of viral copy numbers, absolute quantitative qRT-PCR was utilized, with sample normalization achieved by quantifying plasmid concentrations prior to the detection process. The specific methods are as described in section 2.4 of our previous paper ([18]). The upstream and downstream primers were: PRRSV 5’-[…]’ and 5’-[…]-3′; Marc-145-GAPDH 5’-[…]-3′ and 5’-[…]-3′; PAM-GAPDH 5’-TCTGGCAAAGTGGACATT-3′ and 5’-[…]-3′.
(§2) Figure 4 Inhibitory effects of FMN and MZR on GSWW-18 and GSWW-15 Strains. (A,C) Changes in PRRSV viral titers in PAM cells incubated with 20 μM of FMN or MZR for 36 h with the GSWW-18 strain. (B,D) Changes in PRRSV viral genome in PAM cells after 36 h of incubation with 20 μM of FMN or MZR with the GSWW-15 strain. The black dots in the figure represent the raw data from each independent experiment. p-values were calculated using one-way ANOVA with Dunnett’s multiple-comparison test. The p-value less than 0.03 was considered statistically significant. Error bars represent the mean ± SD.

Data set [2] is described as follows: Cytotoxicity (CC50) by CCK-8 assay in PAM cells. The format is cell-based, Porcine. Conditions: pig. The procedure: (§3) Cells were treated in a 96-well plate using DMEM supplemented with 8% FBS. After achieving a monolayer formation, the cells were treated with multiple concentrations of the test compound, which were diluted in DMEM containing 2% FBS and added to six replicate wells. As a control, a blank solution consisting of 0.5% DMSO in DMEM was employed. The cells treated with the compound were incubated at 37°C in a humidified atmosphere with 5% CO2 for 48 or 72 h. Subsequently, the half-maximal cytotoxic concentrations (CC50) was measured following the protocol described in section 2.2 of our previous work ([18]). […] EC50 was determined by assessing PRRSV genomic expression levels after three freeze–thaw cycles, and results were plotted using GraphPad Prism 8.
(§4) Figure 2 Evaluating the cytotoxicity of FMN and MZR on Marc-145 and PAM Cells. (A,B) CC50 values for FMN in Marc-145 cells at 48 and 72 h, determined via the CCK-8 assay. (C,D) CC50 of FMN in PAM cells assessed at 48 and 72 h. (E,F) CC50 values for MZR in Marc-145 cells at 48 and 72 h. (G,H) CC50 for MZR in PAM cells, also measured at 48 and 72 h. (I) The antiviral activity of FMN against the PRRSV VR-2332 strain, evaluated via IFA. (J) Antiviral effectiveness of MZR against the VR-2332 strain, assessed using IFA. Control samples were treated with a matching volume of 0.4% DMSO in DMEM. Black dots within the figure symbolize individual data points from each independent experiment. IFA images are from three experimental replicates.

For another data set, the system named is PAM cells. Kind of data set: Cytotoxicity (CC50) by CCK-8 assay in PAM cells. The class given is cell-based, Porcine. The procedure:
as §3, §4

The test system of data set [3] is PRRSV VR-2332 strain. The experiment in a line: Antiviral EC50 against PRRSV VR-2332 in Marc-145 cells (PRRSV genomic expression). The class given is cell-based. Particulars: Porcine reproductive and respiratory syndrome virus, MARC145, VR-2332 strain. How it is done: as §1
(§5) Cells were treated in a 96-well plate using DMEM supplemented with 8% FBS. After achieving a monolayer formation, the cells were treated with multiple concentrations of the test compound, which were diluted in DMEM containing 2% FBS and added to six replicate wells. As a control, a blank solution consisting of 0.5% DMSO in DMEM was employed. The cells treated with the compound were incubated at 37°C in a humidified atmosphere with 5% CO2 for 48 or 72 h. Subsequently, the half-maximal cytotoxic concentrations (CC50) was measured following the protocol described in section 2.2 of our previous work ([18]). For the determination of the half-maximal effective concentration (EC50), each concentration was tested in triplicate wells, using 0.4% DMSO as a blank control. EC50 was determined by assessing PRRSV genomic expression levels after three freeze–thaw cycles, and results were plotted using GraphPad Prism 8.

For data set [4], the system named is PRRSV VR-2332 strain. Kind of data set: Antiviral EC50 against PRRSV VR-2332 in PAM cells (PRRSV genomic expression). The format is cell-based. Conditions: Porcine reproductive and respiratory syndrome virus. The procedure:
as §1, §5

For data set [5], the system named is PRRSV VR-2332 strain. The experiment in a line: Viral titer (TCID50) and viral genome (qRT-PCR) of VR-2332 after 36-h incubation with the compounds. The class given is cell-based, Porcine Reproductive and Respiratory Syndrome Virus. Particulars: for Correlation of concentration with relative expression of the PRRSV genome / Correlation of concentration with viral titer: 36-h incubation, linear fit slope m negative; for Concentrations effectively suppressing viral replication: dose-dependent inhibition. How it is done:
as §1
Figure 3 Assessing the antiviral potency of FMN and MZR on PRRSV. This figure delineates the evaluation of FMN and MZR at varying concentrations for their antiviral effects on the VR-2332 strain. (A,C) Display the EC50 of FMN in PAM and Marc-145 cells, respectively. (B,D) Illustrate the EC50 of MZR in PAM and Marc-145 cells. (E,F) Show alterations in the viral titers of the VR-2332 strain post 36-h incubation with distinct concentrations of FMN or MZR. (G,H) Represent the viral genome changes under similar conditions. Each point in the figure corresponds to raw data from individual experiments. Linear fit slopes are marked in red. Error bars indicate the mean ± SD. TEXT PRINTED IN THE PICTURE: (A) FMN: PAM: EC50: 8.716; PAM: EC90: 223.542 | (B) MZR: PAM: EC50: 8.274; PAM: EC90: 19.945 | (C) FMN: Marc-145: EC50: 16.863; Marc-145: EC90: 104.819 | (D) MZR: Marc-145: EC50: 22.335; Marc-145: EC90: 63.856

For another data set, the system named is Marc-145 cells. The experiment in a line: Cytotoxicity (CC50) by CCK-8 assay in Marc-145 cells. The class given is cell-based. Conditions: for Non-cytotoxic concentrations: Marc-145 and PAM cells, treatment durations shorter than 48 h. The procedure:
as §3, with “The cells treated with the compound were incubated at 37°C in a humidified atmosphere with 5% CO2 for 48 or 72 h.” left out
as §4

For another data set, the system named is PRRSV GSWW-15 strain. The experiment in a line: Viral titer and gene expression of GSWW-15 strain in PAM cells. The format is cell-based, Porcine Reproductive and Respiratory Syndrome Virus. Conditions: 36 h. The procedure: as §1, §2
Data set [6] has as its system PRRSV VR-2332 strain. Kind of data set: Indirect immunofluorescence assay (IFA) of VR-2332 in PAM cells. The class given is cell-based, Porcine Reproductive and Respiratory Syndrome Virus. Particulars: within the safety range. How it is done: The following antibodies were used for IFA: Mouse Anti-SR30 (Rtilab, SR30-A) and Goat Anti-Mouse FITC (Bioss, bs-0368G-FITC). After virus inoculation, cells were fixed with 80% cold acetone according to previous experimental conditions for IFA ([18]). A Leica DMI6000 microscope was used for observation.
as §4

[7] abbreviates: added 16 h after infection, P > 0.1234.
Where [8] appears, read: added in the initial stages post-infection, collected 36 h post-infection.
The mark [9] stands for this setting: lower concentrations added 8 h post-infection, P > 0.1234.

Consider `COc1ccc(-c2coc3cc(O)ccc3c2=O)cc1` [FMN, 7-hydroxy-3-(4-methoxyphenyl)-4H-chromen-4-one], for which the “Effect on PRRSV replication (PRRSV RNA)” value is on record as “entirely ineffective” in the data set on PRRSV VR-2332 strain [1] (setting [7]), “pronounced antiviral activity” in the data set on PRRSV VR-2332 strain [1] (setting [8]) and “did not significantly impede PRRSV replication” in the data set with PRRSV VR-2332 strain [1] (setting [9]). Moreover, the Gene expression levels result in the data set on PRRSV GSWW-18 strain and in the data set with PRRSV GSWW-15 strain was “dose-dependent inverse relationship” in each case. Further, the Viral titers result with PRRSV GSWW-18 strain and with PRRSV GSWW-15 strain was “dose-dependent reduction” in each case. Further, the cytotoxic concentration (CC50) at 72 h in data set [2] (72 h, printed in the picture of Figure 2D, no unit) was determined as 52 µM; in data set [2] (72 h exposure), 52 µM. For the same compound, the Cytotoxicity result in the data set on PAM cells (48 h) is listed as “non-toxic”. Further, the concentration for a half-maximal effect (EC50) was roughly 16.9 µM with PRRSV VR-2332 strain [3]; 16.9 µM in the data set with PRRSV VR-2332 strain [3] (Figure 3, unit inferred); roughly 8.72 µM in the data set with PRRSV VR-2332 strain [4]; 8.72 µM in the data set on PRRSV VR-2332 strain [4] (Figure 3, unit inferred). Further, the 90% effect concentration (EC90) amounted to 105 µM in the data set on PRRSV VR-2332 strain [3] (Figure 3, unit inferred) and 224 µM in the data set on PRRSV VR-2332 strain [4] (Figure 3, unit inferred). For the same compound, in the data set with PRRSV VR-2332 strain [5], the “Correlation of concentration with relative expression of the PRRSV genome” value is on record as “negatively correlated”. Also, the “Correlation of concentration with viral titer” value in the data set on PRRSV VR-2332 strain [5] was “negatively correlated”. In addition, the “Concentrations effectively suppressing viral replication” value in the data set on PRRSV VR-2332 strain [5] is listed as “above 20 μM”. In the data set with Marc-145 cells, the Non-cytotoxic concentrations result is recorded as “below 100 μM”. The “Antiviral activity by IFA” value with PRRSV VR-2332 strain [6] is reported as “antiviral efficacy”.

Take `NC(=O)c1ncn([C@@H]2O[C@H](CO)[C@@H](O)[C@H]2O)c1O` [MZR, 1-[(2R,3R,4S,5R)-3,4-dihydroxy-5-(hydroxymethyl)oxolan-2-yl]-5-hydroxy-1H-imidazole-4-carboxamide, reference compound]: the “Effect on PRRSV replication (PRRSV RNA)” value in the data set on PRRSV VR-2332 strain [1] (setting [7]) is recorded as “entirely ineffective”; with PRRSV VR-2332 strain [1] (setting [8]) it was “pronounced antiviral activity”; in the data set on PRRSV VR-2332 strain [1] (setting [9]), “did not significantly impede PRRSV replication”. Moreover, the Gene expression levels result in the data set with PRRSV GSWW-18 strain and with PRRSV GSWW-15 strain was “dose-dependent inverse relationship” each time. Further, the Viral titers entry in the data set with PRRSV GSWW-18 strain and in the data set on PRRSV GSWW-15 strain was “dose-dependent reduction” each time. The Cytotoxicity entry in the data set on PAM cells (treatment up to 72 h) is “negligible cytotoxicity”; in the data set on Marc-145 cells (Marc-145 cells, various concentrations, 48 and 72 h) it was “minimal cytotoxicity”. Also, the EC50 is roughly 22.3 µM with PRRSV VR-2332 strain [3]; 22.3 µM in the data set with PRRSV VR-2332 strain [3] (Figure 3, unit inferred); roughly 8.27 µM in the data set with PRRSV VR-2332 strain [4]; 8.27 µM with PRRSV VR-2332 strain [4] (Figure 3, unit inferred). The concentration for an effect of 90% (EC90) was determined as 63.9 µM with PRRSV VR-2332 strain [3] (Figure 3, unit inferred) and 19.9 µM in the data set with PRRSV VR-2332 strain [4] (Figure 3, unit inferred). The “Correlation of concentration with relative expression of the PRRSV genome” value in the data set with PRRSV VR-2332 strain [5] is on record as “negatively correlated”. Also, the “Correlation of concentration with viral titer” value with PRRSV VR-2332 strain [5] is on record as “negatively correlated”. For the same compound, the “Concentrations effectively suppressing viral replication” value in the data set with PRRSV VR-2332 strain [5] was “above 20 μM”. For the same compound, in the data set with Marc-145 cells, the Non-cytotoxic concentrations entry is “below 100 μM”. Also, in the data set on PRRSV VR-2332 strain [6], the “Antiviral activity by IFA” value is “antiviral efficacy”.
